Test results taken from patent US20120115798A1, “METHOD FOR IMPROVING THE IMMUNITY OF A COMPANION ANIMAL” (priority 2010, published 2012).

Key:
Format in all cases: in vivo, dog (Labrador Retrievers)
CD18+ immune cells = assay: Flow cytometry of CD18+ immune cells in blood of dogs fed mannoheptulose diet; settings: for CD18+ immune cells: analyzed by age
Text: Eighty (n=80) Labrador Retrievers were randomized by age, gender, and littermate to receive either a complete and nutritionally balanced control diet that is similar to Eukanuba Senior Large Breed or an experimental diet that is identical to the control diet except for the inclusion of mannoheptulose as disclosed below. The dogs were split into two study groups. Study 1: A total of 39 older Labrador Retrievers are fed a nutritionally-balanced composition providing mannoheptulose at levels of 0 or about 2 mg/kg of body weight of the dog. Average age of the dogs (12 neutered males, 27 spayed females) at the start of a 4-year study is 6.7 years with a range of 5.1 to 8.2 years of age for the youngest and oldest dog within the cohort, respectively. The control composition is fed as a nutritionally-balanced composition, and it contains no mannoheptulose (0 mg/kg), avocado extract, avocado meal, or avocado concentrate. The test composition is the nutritionally-balanced control composition formulated with avocado extract, avocado meal, or avocado concentrate to provide mannoheptulose at a dose of about 2 mg/kg body weight of the dog. Older dogs are fed one-half their daily allotment of food at 0730 and 1430 each day. Dogs were fed to maintain body weight and body composition score (BCS) within a 2-4 score range. If food adjustments were made, they were made on a quarterly basis. All dogs were fasted overnight and morning meals were withheld until blood collections could be conducted for all immune measurements. Water is provided ad lib. Study 2: A total of 41 younger Labrador Retrievers are fed a nutritionally-balanced composition providing mannoheptulose at levels of 0 or about 2 mg/kg of body weight of the dog. Average age of the dogs (12 neutered males, 29 spayed females) at the start of the 36-month feeding study is 4.0 years with a range of 2.0 to 6.1 years of age for the youngest and oldest dog within the cohort, respectively. […] Cell populations were analyzed on a FACScan Flow Cytometer (Becton Dickinson) using CellQuest Pro Software.

B cells = assay: Lymphocyte blastogenesis (3H-thymidine), B cell mitogenic stimulation of PBMCs from dogs fed mannoheptulose diet
Text: (§1) Phytohaemagglutinin (PHA), the lectin extract from the red kidney bean (Phaseolus vulgaris), contains potent, T-cell mitogenic activity (Hammerstrom, S. et al. (1982) Proc. Nall. Acad. Sci. USA 79, 1611-1615). Pokeweed mitogen (PWM), derived from Phytolacca Americana, is a B cell mitogen (Schreck et al., Annals of Clinical and Laboratory Science, Vol 12, Issue 6, 455-462). Together these three mitogens are used to stimulate immune cells in vitro in the lymphocyte blastogenesis assay, a well accepted indicator of immune response in vivo. Many studies have shown this assay to be responsive to the age-associated decline in immune system response (Goldrosen et al., 1977—Journal of surgical oncology 9: 229-234). A lower proliferative capacity indicates the immune cells cannot become activated and multiply as efficiently (a key step in the process of mounting an effective immune response).
Eighty (n=80) Labrador Retrievers were randomized by age, gender, and littermate to receive either a complete and nutritionally balanced control diet that is similar to Eukanuba Senior Large Breed or an experimental diet that is identical to the control diet except for the inclusion of mannoheptulose as disclosed below. The dogs were split into two study groups. […]

T cells = assay: Lymphocyte blastogenesis (3H-thymidine), T cell mitogenic stimulation of PBMCs from dogs fed mannoheptulose diet
Text: as §1
Eighty (n=80) Labrador Retrievers were randomized by age, gender, and littermate to receive either a complete and nutritionally balanced control diet that is similar to Eukanuba Senior Large Breed or an experimental diet that is identical to the control diet except for the inclusion of mannoheptulose as disclosed below. The dogs were split into two study groups.
Study 1: A total of 39 older Labrador Retrievers are fed a nutritionally-balanced composition providing mannoheptulose at levels of 0 or about 2 mg/kg of body weight of the dog. Average age of the dogs (12 neutered males, 27 spayed females) at the start of a 4-year study is 6.7 years with a range of 5.1 to 8.2 years of age for the youngest and oldest dog within the cohort, respectively. The control composition is fed as a nutritionally-balanced composition, and it contains no mannoheptulose (0 mg/kg), avocado extract, avocado meal, or avocado concentrate. The test composition is the nutritionally-balanced control composition formulated with avocado extract, avocado meal, or avocado concentrate to provide mannoheptulose at a dose of about 2 mg/kg body weight of the dog. […]

8-OHdG = assay: Serum 8-OHdG ELISA (DNA oxidation) in dogs fed mannoheptulose diet
Text: 8-Oxo-2′-deoxyguanosine (8-OHdG) is an oxidized derivative of deoxyguanosine. 8-OHdG is one of the major products of DNA oxidation. As part of the immune response, T and B cells must proliferate (become activated and divide). A key step to robust proliferation is DNA replication. If cells have damaged DNA or must repair DNA, this crucial step can be hindered. […] By lowering DNA damage in the mannoheptulose fed dogs, immune cell replication would be facilitated, helping to enable a key step in the activation cascade of the immune system. Eighty (n=80) Labrador Retrievers were randomized by age, gender, and littermate to receive either a complete and nutritionally balanced control diet that is similar to Eukanuba Senior Large Breed or an experimental diet that is identical to the control diet except for the inclusion of mannoheptulose as disclosed below. The dogs were split into two study groups. Study 1: A total of 39 older Labrador Retrievers are fed a nutritionally-balanced composition providing mannoheptulose at levels of 0 or about 2 mg/kg of body weight of the dog. […] Amount of 8-OHDG is quantified using a commercially available ELISA kit from Oxis Health Products, catalog #21026. […] Add […] of the Stop Solution, mix, wait 3 minutes and read the absorbance at 450 nm.

[1] = summary table, aging dogs consuming diet with MH, direction of change

Question: How did the “CD18+ immune cells” value (CD18+ immune cells; dog group 1 (older dogs), test diet delivering 2 mg mannoheptulose per kg body weight vs diet matched controls, FIG. 1) turn out when `O=C(CO)[C@@H](O)[C@@H](O)[C@H](O)[C@H](O)CO` [mannoheptulose] was run?
Answer: significant attenuation in the increase of CD18+ immune cells

Question: What about the “CD18+ immune cells” value (CD18+ immune cells; dog group 2 (younger dogs), test diet with mannoheptulose about 2 mg/kg vs diet matched controls, FIG. 2) of the same compound?
Answer: trend for attenuation in the increase of CD18+ immune cells

Question: What about the “% CD18 + cells” value (CD18+ immune cells; [1]) of the same compound?
Answer: ↓

Question: What about the “B cell mitogenic stimulation to PWM” value (B cells; dog groups 1 and 2, mannoheptulose diet about 2 mg/kg vs control diet, FIGS. 7 and 8) of the same compound?
Answer: either a statistical trend or a statistical improvement in B cell mitogenic stimulation to PWM

Question: And the B cell proliferation (B cells; [1])?
Answer: ↑

Question: And the “T cell mitogenic stimulation to ConA” value (T cells; dog groups 1 and 2, mannoheptulose diet about 2 mg/kg vs control diet, FIGS. 3 and 4)?
Answer: either a statistical trend or a statistical improvement in T cell mitogenic stimulation to ConA

Question: What about the “T cell mitogenic stimulation to PHA” value (T cells; dog groups 1 and 2, mannoheptulose diet about 2 mg/kg vs control diet, FIGS. 5 and 6) of the same compound?
Answer: either a statistical trend or a statistical improvement in T cell mitogenic stimulation to PHA

Question: And the T cell proliferation (T cells; [1])?
Answer: ↑

Question: And the “serum 8-OHdG” value (8-OHdG; dog group 1, mannoheptulose diet vs control diet, FIG. 9)?
Answer: significantly lower serum 8-OHdG

Question: What about the DNA damage (8-OHdG; [1]) of the same compound?
Answer: ↓
